Source: patent US12338199B2, “Bis-octahydrophenanthrene carboxamides and protein conjugates thereof” (REGENERON PHARMACEUTICALS, INC., priority 2017, dated 2025)
“And” between values parts separate entries of the source, which are not always exact repeats. Equal entries are not always repeated. Where two headings read alike, the source gives them in different places.

Legend:
THP1/LXR-Luc cells = assay: THP1/LXR-Luc luciferase reporter bioassay; assay type: cell-based; conditions: Homo sapiens, THP-1, 48 hours
Method in brief: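 THP1 cells stably carrying an LXR-response-element firefly luciferase reporter were seeded at 30,000/well in RPMI/10% FBS and given 3-fold dilutions (100 nM to 0.01 nM) for 48 or 72 h. Luminescence was read with One-Glo. EC50 came from a 4-parameter fit of a 10-point curve, and fold activation was taken relative to maximal free-payload activation.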

ABCA1 = ABCA1 mRNA induction in differentiated THP-1 macrophages (TaqMan); assay type: cell-based, human; conditions: THP1 macrophages, 24-hour treatment; magnitude in words
Protocol: To determine the ability of LXR agonists to activate ABCA1 and ABCG1 genes, the mRNA levels of these two genes in differentiated macrophages was measured. […] Cells were differentiated into macrophages by treatment with 100 nM Phorbol-12 myristate 13-acetate (Sigma, # P8139), which was added to the media described above, for 72 hours. […] Chloroform was then used for phase separation. The aqueous phase, containing total RNA, was purified using MagMAX™-96 for Microarrays Total RNA Isolation Kit (Ambion, Cat # AM1830) and reverse-transcribed into cDNA using SuperScript® VILO™ Master Mix (Invitrogen, Cat #11755050) as per the manufacturer's instructions. TaqMan® was performed using Gene Expression Master Mix, the ABI 7900HT Sequence Detection System (Applied Biosystems) and the primers and probes indicated below in Table 9. The GAPDH gene was used as the internal control gene to normalize any cDNA input differences.

THP-1 cells = assay: BODIPY-cholesterol efflux in THP-1 macrophages; assay type: cell-based, human; conditions: for EC50: Homo sapiens, THP-1
Protocol: The ability of anti-MSR1 antibody-LXR conjugates to activate cholesterol efflux in a human macrophage cell line (THP-1; ATCC Catalog # TIB-202), was assessed using a fluorescent cholesterol analog.
Cells were differentiated into macrophages by addition of 100 nM Phorbol-12 myristate 13-acetate (Sigma, Catalog #P 8139) to the media and subjected to further incubation for 96 hours.
Percentage of BODIPY-cholesterol efflux was calculated using the following formula: [fluorescence in acceptor media/(fluorescence in acceptor media+fluorescence in cell lysate)]×100. Table 15 provides activated cholesterol efflux for the tested articles, and FIG. 15 illustrates the data in graph form.

LXR beta = target: T1, LXR beta (Homo sapiens, UniProt P55055); assay: LanthaScreen TR-FRET LXR beta Coactivator Assay (cell-free binding); conditions: TR-FRET, 12-point curve; read-out: Cell free binding LXRβ IC50
T1 construct: LXR alpha or beta LBD-GST; purchased ThermoFisher PV4658
T1 sequence (P55055 222-460 limits assumed): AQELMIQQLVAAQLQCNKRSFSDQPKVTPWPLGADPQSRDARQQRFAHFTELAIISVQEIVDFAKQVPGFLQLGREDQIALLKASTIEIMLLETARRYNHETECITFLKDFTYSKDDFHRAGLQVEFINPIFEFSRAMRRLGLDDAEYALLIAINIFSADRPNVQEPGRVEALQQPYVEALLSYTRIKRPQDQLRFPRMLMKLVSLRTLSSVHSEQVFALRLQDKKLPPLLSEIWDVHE

For `C[C@]1(C(=O)NC(=O)[C@@]2(C)CCC[C@]3(C)c4cc(O)ccc4CC[C@@H]23)CCC[C@]2(C)c3cc(N)ccc3CC[C@@H]12` [Compound 9d, (1S,4aS,10aR)—N-[(1S,4aS,10aR)-6-Amino-1,4a-dimethyl-1,2,3,4,4a,9,10,10a-octahydrophenanthrene-1-carbonyl]-6-hydroxy-1,4a-dimethyl-1,2,3,4,4a,9,10,10a-octahydrophenanthrene-1-carboxamide], the EC50 (THP1/LXR-Luc cells; read-out: Activation of THP1/LXR-Luc cells: EC50) was at most 1 nM, the Emax (THP1/LXR-Luc cells; relative to maximum activation of free payload 9d, read-out: Activation of THP1/LXR-Luc cells: Fold of activation) was over 75% and the “ABCA1 induction EC50” value (ABCA1) was “sub-picomolar”. For the same compound, the “Maximum efflux (%)” value (THP-1 cells; 24-hour treatment, BODIPY-cholesterol efflux) was 36.6% and 36.7%, the EC50 (THP-1 cells; 24-hour treatment, read-out: Cholesterol Efflux activation EC50) was 0.15 nM and the EC50 (THP-1 cells; after 24 hours, read-out: Cholesterol efflux EC50) was 0.15 nM. It also gave an IC50 (LXR beta) of under 10 nM.
